Where two headings read alike, the source gives them in different places. Values belong to the compound of their own block, whether it stands above or below them.
Assays:
[1] = biological target: T1, FL-SMARCA2 (full-length human SMARCA2 isoform 1) (Homo sapiens, UniProt P51531); assay: SMARCA2 ATPase activity assay (ADP-Glo, chicken mononucleosome substrate); type: biochemical; details: ATP 250 uM
T1 construct: FLAG tag (YKDDDDK) (C); made in house; host or cells: Sf21 insect cells (baculovirus, pFastBacI)
Source text: Molecular Biology: Full-length human SMARCA2 isoform 1 (P51531) transcript clone was amplified from a cDNA library incorporating an N-terminal HIS tag ([…]) fused directly to Ser2 of SMARCA2 and a C-FLAG tag (YKDDDDK) fused directly to Glu1590 of SMARCA2. The amplified gene was subcloned into pFastBacI (Life Technologies).
Protein Expression: Recombinant baculovirus were generated and protein over-expression was accomplished by infecting exponentially growing Sf21 insect cell culture at 1.24×10^6 cell/ml with an MOI of 0.1. Infections were carried out for 76 hours, harvested by centrifugation, and stored at −80° C. for purification.
Expressed full-length SMARCA2 was purified from cell paste by FLAG affinity chromatography followed by anion exchange chromatography. The protein was dialyzed into a storage buffer containing 25 mM HEPES, 300 mM KCl, 10% Glycerol, pH 7.9, 1 mM TCEP and 0.01% Tween-20. The purity of the protein was measured as 74% using micro-capillary based gel electrophoresis.

FL-SMARCA4 = FL-SMARCA4 (Homo sapiens, UniProt P51532); assay: SMARCA4 ATPase activity assay (ADP-Glo, chicken mononucleosome substrate)
[2] = Table 3a.1, SMARCA2 5 nM, mononucleosome 10 nM
[3] = FL-SMARCA4 IC50, Table 3a.2, SMARCA4 5 nM, ATP 250 uM, mononucleosome 10 nM
[4] = Table 3b.1, SMARCA2 5 nM, mononucleosome 10 nM
[5] = FL-SMARCA4 IC50, Table 3b.2, SMARCA4 5 nM, ATP 250 uM, mononucleosome 10 nM
[6] = Table 3c.1, ATPase assay, enzyme 5 nM, chicken mononucleosome 10 nM, 30 min preincubation
[7] = FL-SMARCA4 IC>50, Table 3c.2, ATPase assay, enzyme 5 nM, ATP 250 uM, chicken mononucleosome 10 nM, 30 min preincubation
[8] = Table 3.1, ATPase assay, enzyme 5 nM, chicken mononucleosome 10 nM, 30 min preincubation
[9] = FL-SMARCA4 IC50, Table 3.2, ATPase assay, enzyme 5 nM, ATP 250 uM, chicken mononucleosome 10 nM, 30 min preincubation

T1 sequence (P51531 with tags, fused parts or gaps): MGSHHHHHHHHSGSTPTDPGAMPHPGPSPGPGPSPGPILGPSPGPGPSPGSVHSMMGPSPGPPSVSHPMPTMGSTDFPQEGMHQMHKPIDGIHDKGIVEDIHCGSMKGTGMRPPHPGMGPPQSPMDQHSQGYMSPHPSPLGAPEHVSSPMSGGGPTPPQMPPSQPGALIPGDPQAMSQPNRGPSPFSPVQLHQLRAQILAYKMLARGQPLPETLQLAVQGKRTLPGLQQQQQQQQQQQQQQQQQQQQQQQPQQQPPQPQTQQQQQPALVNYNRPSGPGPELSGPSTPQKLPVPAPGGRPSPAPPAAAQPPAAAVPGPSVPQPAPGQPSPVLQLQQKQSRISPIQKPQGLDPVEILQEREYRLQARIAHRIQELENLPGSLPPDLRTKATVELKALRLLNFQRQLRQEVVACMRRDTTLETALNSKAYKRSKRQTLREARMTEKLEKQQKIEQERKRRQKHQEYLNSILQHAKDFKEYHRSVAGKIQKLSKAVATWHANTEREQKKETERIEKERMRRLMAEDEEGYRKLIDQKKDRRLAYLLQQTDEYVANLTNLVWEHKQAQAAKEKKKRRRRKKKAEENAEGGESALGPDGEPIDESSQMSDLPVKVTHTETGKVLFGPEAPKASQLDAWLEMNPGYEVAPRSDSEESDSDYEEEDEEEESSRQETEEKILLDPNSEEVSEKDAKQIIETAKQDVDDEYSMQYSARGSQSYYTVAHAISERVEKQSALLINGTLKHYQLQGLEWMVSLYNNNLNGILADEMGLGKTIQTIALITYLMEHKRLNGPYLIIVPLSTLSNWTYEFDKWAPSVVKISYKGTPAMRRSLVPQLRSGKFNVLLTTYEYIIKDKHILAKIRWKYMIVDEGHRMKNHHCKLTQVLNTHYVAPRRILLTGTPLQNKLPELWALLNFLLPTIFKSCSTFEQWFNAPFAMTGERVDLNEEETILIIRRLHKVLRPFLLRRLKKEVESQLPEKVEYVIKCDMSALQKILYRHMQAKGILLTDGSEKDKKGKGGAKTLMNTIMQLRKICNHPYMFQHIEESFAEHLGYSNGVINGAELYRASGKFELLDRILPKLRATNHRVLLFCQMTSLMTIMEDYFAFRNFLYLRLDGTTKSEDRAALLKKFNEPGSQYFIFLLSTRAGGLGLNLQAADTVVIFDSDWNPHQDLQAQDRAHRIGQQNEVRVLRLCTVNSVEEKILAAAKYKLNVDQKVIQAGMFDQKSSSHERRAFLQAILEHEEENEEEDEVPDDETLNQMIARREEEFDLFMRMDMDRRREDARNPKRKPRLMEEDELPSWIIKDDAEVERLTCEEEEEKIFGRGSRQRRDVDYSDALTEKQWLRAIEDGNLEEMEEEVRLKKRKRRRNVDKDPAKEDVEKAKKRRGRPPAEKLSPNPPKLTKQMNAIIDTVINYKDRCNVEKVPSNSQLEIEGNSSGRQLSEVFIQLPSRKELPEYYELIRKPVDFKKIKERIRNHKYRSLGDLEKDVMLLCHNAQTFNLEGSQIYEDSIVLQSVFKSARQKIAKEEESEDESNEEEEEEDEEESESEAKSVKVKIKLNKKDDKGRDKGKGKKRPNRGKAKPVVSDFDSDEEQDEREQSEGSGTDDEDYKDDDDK
Sequence of FL-SMARCA4 (P51532 whole entry): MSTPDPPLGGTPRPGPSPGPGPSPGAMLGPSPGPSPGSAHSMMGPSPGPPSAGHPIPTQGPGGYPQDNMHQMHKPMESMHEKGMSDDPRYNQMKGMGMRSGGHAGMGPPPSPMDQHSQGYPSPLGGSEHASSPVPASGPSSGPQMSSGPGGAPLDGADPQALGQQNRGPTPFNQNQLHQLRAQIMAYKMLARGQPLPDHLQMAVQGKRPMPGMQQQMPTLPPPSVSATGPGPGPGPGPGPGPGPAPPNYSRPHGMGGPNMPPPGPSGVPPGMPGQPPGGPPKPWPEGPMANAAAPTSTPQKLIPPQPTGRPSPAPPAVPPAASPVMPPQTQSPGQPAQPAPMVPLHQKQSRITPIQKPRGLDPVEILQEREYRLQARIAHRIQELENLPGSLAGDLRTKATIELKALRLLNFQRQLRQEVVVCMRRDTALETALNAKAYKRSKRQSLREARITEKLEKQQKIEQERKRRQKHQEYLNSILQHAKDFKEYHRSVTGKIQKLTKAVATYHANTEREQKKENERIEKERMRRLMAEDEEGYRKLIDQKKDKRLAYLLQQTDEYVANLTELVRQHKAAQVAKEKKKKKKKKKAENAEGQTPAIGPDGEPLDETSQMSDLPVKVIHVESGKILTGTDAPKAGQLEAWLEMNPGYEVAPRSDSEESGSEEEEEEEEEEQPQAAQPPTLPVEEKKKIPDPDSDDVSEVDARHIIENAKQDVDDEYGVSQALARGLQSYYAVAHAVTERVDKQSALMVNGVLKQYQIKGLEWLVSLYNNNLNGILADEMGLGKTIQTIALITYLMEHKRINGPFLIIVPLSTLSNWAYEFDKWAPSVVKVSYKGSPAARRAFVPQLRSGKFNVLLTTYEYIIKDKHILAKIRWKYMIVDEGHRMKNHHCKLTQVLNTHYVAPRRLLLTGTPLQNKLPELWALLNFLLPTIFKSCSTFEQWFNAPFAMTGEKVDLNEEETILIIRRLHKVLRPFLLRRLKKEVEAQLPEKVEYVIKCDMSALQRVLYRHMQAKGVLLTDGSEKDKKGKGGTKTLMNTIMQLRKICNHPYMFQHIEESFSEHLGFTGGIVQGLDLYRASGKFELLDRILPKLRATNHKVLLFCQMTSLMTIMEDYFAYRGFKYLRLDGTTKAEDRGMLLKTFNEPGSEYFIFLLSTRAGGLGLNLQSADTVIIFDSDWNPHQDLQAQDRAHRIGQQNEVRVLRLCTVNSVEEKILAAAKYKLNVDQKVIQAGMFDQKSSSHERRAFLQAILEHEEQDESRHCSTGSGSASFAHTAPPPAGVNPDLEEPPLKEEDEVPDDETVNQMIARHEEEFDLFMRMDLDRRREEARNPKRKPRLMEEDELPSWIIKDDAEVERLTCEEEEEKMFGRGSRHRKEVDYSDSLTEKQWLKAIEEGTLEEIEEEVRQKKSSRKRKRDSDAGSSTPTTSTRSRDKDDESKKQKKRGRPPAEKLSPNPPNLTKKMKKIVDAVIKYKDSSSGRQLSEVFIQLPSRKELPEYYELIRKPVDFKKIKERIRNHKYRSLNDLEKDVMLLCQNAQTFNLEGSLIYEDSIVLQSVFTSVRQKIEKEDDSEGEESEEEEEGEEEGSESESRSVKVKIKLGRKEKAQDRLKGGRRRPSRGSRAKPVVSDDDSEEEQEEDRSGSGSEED

Structure (SMILES): CO[C@@H]1CN[C@H](C(=O)Nc2cc(Br)c(=O)n(C)c2)C1 [Compound 9a]
IC50 [1, 2]: > 50 µM
IC50 (FL-SMARCA4; [3]): > 50 µM

Structure (SMILES): CCn1cc(NC(=O)c2ccc(Cl)c(F)c2)ccc1=O [Compound 9b]
IC50 [1, 4]: 43.7 µM
IC50 (FL-SMARCA4; [5]): > 50 µM

Structure (SMILES): O=C(Nc1cc(F)c(=O)n(CC(F)F)c1)c1cc(C#CC2CNC2)c(Cl)s1 [Compound 9c]
IC50 [1, 6]: 2.88 µM
IC50 (FL-SMARCA4; [7]): 7.82 µM

Structure (SMILES): CCn1cc(NC(=O)CC2CCOCC2)ccc1=O [Compound 9d]
IC50 ([1]; Table 3d.1, ATPase assay, enzyme 5 nM, chicken mononucleosome 10 nM, 30 min preincubation, read-out: FL-SMARCA2 IC>50): > 50 µM
IC50 (FL-SMARCA4; FL-SMARCA4 IC50): > 50 µM

Structure (SMILES): CCn1cc(NC(=O)c2cc(C(C)C)n(-c3ccccn3)n2)ccc1=O [Compound 10]
IC50 [1, 8]: > 50 µM
IC50 (FL-SMARCA4; [9]): > 50 µM

Structure (SMILES): COCCn1cc(NC(=O)c2nc(C)n(-c3ccccc3Cl)n2)ccc1=O [Compound 11]
IC50 [1, 8]: > 50 µM
IC50 (FL-SMARCA4; [9]): > 50 µM

Structure (SMILES): Cn1cc(NC(=O)c2cnc(-c3ccco3)s2)cc(Cl)c1=O [Compound 12]
IC50 [1, 8]: > 50 µM
IC50 (FL-SMARCA4; [9]): > 50 µM

Structure (SMILES): CCn1cc(NC(=O)c2cccn2C)ccc1=O [Compound 13]
IC50 [1, 8]: > 50 µM
IC50 (FL-SMARCA4; [9]): > 50 µM

Structure (SMILES): CCn1cc(NC(=O)c2c(C)noc2C)ccc1=O [Compound 14]
IC50 [1, 8]: > 50 µM
IC50 (FL-SMARCA4; [9]): > 50 µM

Structure (SMILES): CCn1cc(NC(=O)c2cc(C(F)(F)F)nn2C)ccc1=O [Compound 15]
IC50 [1, 8]: > 50 µM
IC50 (FL-SMARCA4; [9]): > 50 µM

Structure (SMILES): CCn1cc(NC(=O)c2cc(C)nn2C)ccc1=O [Compound 16]
IC50 [1, 8]: > 50 µM
IC50 (FL-SMARCA4; [9]): > 50 µM

The remaining lines, values ahead:

IC50 [1, 2]: > 50 µM
IC50 (FL-SMARCA4; [3]): > 50 µM
Structure (SMILES): CO[C@H]1C[C@@H](C(=O)Nc2ccc(=O)n(C)c2)N(C)C1 [Compound 10a]

IC50 [1, 4]: > 50 µM
IC50 (FL-SMARCA4; [5]): > 50 µM
Structure (SMILES): CCn1cc(NC(=O)c2cccc(Cl)c2F)ccc1=O [Compound 10b]

IC50 [1, 6]: 3.35 µM
IC50 (FL-SMARCA4; [7]): 7.13 µM
Structure (SMILES): CC(C)(C)OC(=O)N1CC(C#Cc2cc(C(=O)Nc3cc(F)c(=O)n(CC(F)F)c3)sc2Cl)C1 [Compound 10c]

IC50 [1, 2]: > 50 µM
IC50 (FL-SMARCA4; [3]): > 50 µM
Structure (SMILES): CO[C@H]1C[C@@H](C(=O)Nc2cc(Cl)c(=O)n(C)c2)N(C)C1 [Compound 11a]

IC50 [1, 4]: > 50 µM
IC50 (FL-SMARCA4; [5]): > 50 µM
Structure (SMILES): CCn1cc(NC(=O)C2CCCC2)ccc1=O [Compound 11b]

IC50 [1, 6]: > 50 µM
IC50 (FL-SMARCA4; [7]): > 50 µM
Structure (SMILES): CS(=O)(=O)c1cc(NC(=O)c2cc(F)c(Cl)s2)cn(CC(F)F)c1=O [Compound 11c]

IC50 [1, 2]: > 50 µM
IC50 (FL-SMARCA4; [3]): > 50 µM
Structure (SMILES): CCC(CC)N1CC(C(=O)Nc2cc(Cl)c(=O)n(C)c2)CC1=O (stereo not shown) [Compound 12a]

IC50 [1, 4]: > 50 µM
IC50 (FL-SMARCA4; [5]): > 50 µM
Structure (SMILES): CCn1cc(NC(=O)C2CCCCC2)ccc1=O [Compound 12b]

IC50 [1, 6]: 34.8 µM
IC50 (FL-SMARCA4; [7]): > 50 µM
Structure (SMILES): O=C(Nc1cc(CO)c(=O)n(CC(F)F)c1)c1cc(F)c(Cl)s1 [Compound 12c]

IC50 [1, 2]: > 50 µM
IC50 (FL-SMARCA4; [3]): > 50 µM
Structure (SMILES): CCn1cc(NC(=O)C2CCOCC2)ccc1=O [Compound 13a]

IC50 [1, 4]: > 50 µM
IC50 (FL-SMARCA4; [5]): > 50 µM
Structure (SMILES): CCn1cc(NC(=O)[C@@H]2CCC[C@H](Cl)C2)ccc1=O [Compound 13b]

IC50 [1, 6]: > 50 µM
IC50 (FL-SMARCA4; [7]): > 50 µM
Structure (SMILES): Cn1nccc1-c1cc(NC(=O)c2cc(Cl)c(C(F)(F)F)s2)cn(CC(F)F)c1=O [Compound 13c]

IC50 [1, 2]: > 50 µM
IC50 (FL-SMARCA4; [3]): > 50 µM
Structure (SMILES): CCn1cc(NC(=O)c2cccnc2)ccc1=O [Compound 14a]

IC50 [1, 4]: > 50 µM
IC50 (FL-SMARCA4; [5]): > 50 µM
Structure (SMILES): CCn1cc(NC(=O)[C@@H]2CCC[C@@H](Cl)C2)ccc1=O [Compound 14b]

IC50 [1, 6]: > 50 µM
IC50 (FL-SMARCA4; [7]): > 50 µM
Structure (SMILES): Cn1cc(-c2cc(NC(=O)c3cc(Cl)c(C(F)(F)F)s3)cn(CC(F)F)c2=O)cn1 [Compound 14c]

IC50 [1, 2]: > 50 µM
IC50 (FL-SMARCA4; [3]): > 50 µM
Structure (SMILES): CCn1cc(NC(=O)c2ccc3c(c2)OCO3)ccc1=O [Compound 15a]

IC50 [1, 4]: > 50 µM
IC50 (FL-SMARCA4; [5]): > 50 µM
Structure (SMILES): CCn1cc(NC(=O)[C@@H]2CC[C@H](Cl)C2)ccc1=O [Compound 15b]

IC50 [1, 6]: > 50 µM
IC50 (FL-SMARCA4; [7]): > 50 µM
Structure (SMILES): O=C(Nc1cc(F)c(=O)n(CC(F)F)c1)[C@@H]1CCCN1 [Compound 15c]

IC50 [1, 2]: 26.8 µM
IC50 (FL-SMARCA4; [3]): > 50 µM
Structure (SMILES): CCn1cc(NC(=O)c2cnc(Cl)c(Cl)c2)ccc1=O [Compound 16a]

IC50 [1, 4]: > 50 µM
IC50 (FL-SMARCA4; [5]): > 50 µM
Structure (SMILES): CCn1cc(NC(=O)[C@H]2CC[C@@H](Cl)C2)ccc1=O [Compound 16b]

IC50 [1, 6]: > 50 µM
IC50 (FL-SMARCA4; [7]): > 50 µM
Structure (SMILES): O=C(Nc1cc(F)c(=O)n(CC(F)F)c1)[C@H]1CCCN1 [Compound 16c]
